From patent US20080187508A1, “Treatment of Golmerular Basement Membrane Disease Involving Matrix Metalloproteinase-12” (BOYS TOWN NATIONAL RESEARCH HOSPITAL, priority 2004, published 2008)
“Also recorded” adds a separate entry of the source. Counter-ions that a name gives are not always drawn. Like-named read-outs stand apart in the source and are kept apart here.

Tests used:
MMP-12 = MMP-12 (Homo sapiens, UniProt P39900); details: cited from earlier work
Alport mice = assay: proteinuria by gel electrophoresis of urine of treated Alport mice; type: in vivo, mouse; details: for proteinuria: Alport mice treated from 4 to 7 weeks of age, MMI-270 50 μg/g I.P.; for progression of proteinuria: Alport mice treated from 6 to 7 weeks of age (advanced disease)
Method: Proteinuria was analyzed by gel electrophoresis. (A) One half microliter of urine from control mice (lane 2), MMI 270-treated normal control mice (lane 3), MMI 270-treated Alport mice (injected […] with 50 μg/g of NMI 270) (lane 4), and untreated Alport mice (lane 5) was fractionated on a 10% PAGE gel, stained with Coomassie blue, and destained. Molecular weight markers are shown in lane 1. […] Urine was collected and analyzed as in (A). Lane 1, 6 week old control; lane 2, 6 week old Alport; lane 3, 7 week old control; lanes 4 and 5, 7 week old Alport; lanes 6 and 7, 7 week old Alport treated with MMI-270 from 6 to 7 weeks of age. Molecular weight markers are shown in lane 1. The Alport mouse model has been described (Cosgrove et al. (1996) Genes Dev. 10, 2981-2992). The control mice used were normal for both collagen α3(IV) alleles, and are a product of double heterozygote crosses for the Alport mutation. The use of animals in this study was performed in accordance with an approved institutional IACUC protocol. Extreme care was taken to minimize pain and discomfort suffered by the mice. MMP inhibitors were administered between 4 and 7 weeks of age. All drugs were freshly prepared prior to administration. BAY 129566 was emulsified in suspension with 0.5% carboxymethyl cellulose and 4 mg given once a day by oral gavage. MMI-270 was solubilized in 0.9% saline and administered by I.P. injection (50 μg/g body weight) once a day. To assess the effect of these two compounds on Alport renal disease progression, Alport mice were administered either MMI 270 or BAY 129566 from 4 to 7 weeks of age. The animals were transcardially perfused with PBS and the kidneys harvested. Cryosections were analyzed by immunofluorescence microscopy to assess for the degree of glomerular and tubulointerstitial damage using antibodies specific for collagen IV α1 and α2 chains, and fibronectin.

MMP-9 = MMP-9 (Homo sapiens, UniProt P14780); details: hydrochloride monohydrate; cited from earlier work
MMP-9, sequence (P14780 94-707, species assumed): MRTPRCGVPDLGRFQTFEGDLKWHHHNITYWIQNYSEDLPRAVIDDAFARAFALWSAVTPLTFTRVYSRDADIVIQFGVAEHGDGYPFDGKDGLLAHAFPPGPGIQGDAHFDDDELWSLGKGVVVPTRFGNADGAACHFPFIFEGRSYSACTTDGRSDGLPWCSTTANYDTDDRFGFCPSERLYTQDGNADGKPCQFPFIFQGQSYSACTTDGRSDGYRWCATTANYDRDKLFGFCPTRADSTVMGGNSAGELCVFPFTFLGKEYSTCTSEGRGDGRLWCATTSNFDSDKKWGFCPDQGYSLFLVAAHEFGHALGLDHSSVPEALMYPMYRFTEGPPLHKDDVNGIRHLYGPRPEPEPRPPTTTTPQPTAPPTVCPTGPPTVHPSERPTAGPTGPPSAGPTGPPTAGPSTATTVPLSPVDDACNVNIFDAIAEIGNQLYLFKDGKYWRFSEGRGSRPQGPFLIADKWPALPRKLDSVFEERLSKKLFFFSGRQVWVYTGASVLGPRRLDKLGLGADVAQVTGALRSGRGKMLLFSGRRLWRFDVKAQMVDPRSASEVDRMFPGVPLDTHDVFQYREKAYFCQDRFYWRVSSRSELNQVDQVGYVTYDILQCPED

MMP-14 = MMP-14 (Homo sapiens, UniProt P50281); details: hydrochloride monohydrate; cited from earlier work
[1] = listed as NMI 270, hydrochloride monohydrate

MMP-12, sequence (P39900 106-470, species assumed): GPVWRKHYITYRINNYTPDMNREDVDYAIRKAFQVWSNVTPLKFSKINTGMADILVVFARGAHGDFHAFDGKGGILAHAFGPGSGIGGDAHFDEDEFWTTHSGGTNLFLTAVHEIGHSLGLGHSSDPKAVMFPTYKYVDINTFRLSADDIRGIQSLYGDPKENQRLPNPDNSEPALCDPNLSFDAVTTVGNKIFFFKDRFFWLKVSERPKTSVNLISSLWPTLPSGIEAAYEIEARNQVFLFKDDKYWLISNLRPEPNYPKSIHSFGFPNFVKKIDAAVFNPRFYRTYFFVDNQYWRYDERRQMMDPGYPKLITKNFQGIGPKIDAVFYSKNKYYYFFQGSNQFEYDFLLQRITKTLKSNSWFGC

## COc1ccc(S(=O)(=O)N(Cc2cccnc2)[C@@H](C(=O)NO)C(C)C)cc1 [MMI 270, N-hydroxy-2(R)-[(4-methoxysulfonyl)(3-picolyl)amino]-3-methylbutaneamide hydrochloride monohydrate]
MMP-12; hydrochloride monohydrate
  MMP inhibitory effect, MMP-12: inhibits
MMP-12; [1]
  MMP inhibitory effect, MMP-12: inhibits
Alport mice; hydrochloride monohydrate
  proteinuria: arrests (and may reverse) progressive loss of glomerular function
  progression of proteinuria: arrests the progressive increase in proteinuria; also recorded: arrested
Alport mice; listed as MMI-270, hydrochloride monohydrate
  proteinuria: dramatic reduction
Alport mice; [1]
  proteinuria: drastically reduced
  progression of proteinuria: arrested
MMP-9
  MMP inhibitory effect, MMP-9: inhibits
MMP-14
  MMP inhibitory effect, MMP-14: inhibits
